Test results taken from patent US20260021085A1, “CYCLOALKYL CARBOXYLIC ACID DERIVATIVES AS INHIBITORS OF GLYCOGEN SYNTHASE 1 (GYS1) AND METHODS OF USE THEREOF” (Maze Therapeutics, Inc., priority 2022, published 2026).

Assays:
human GYS1 = human GYS1 (Homo sapiens (Human), UniProt P13807); assay: GYS1 coupled enzyme assay (PK/LDH); format: biochemical; details: recombinant hGYS1/GN1 protein; geometric mean of at least 2 assay runs
Text: (§1) The GYS1 coupled enzyme assay is a kinetic biochemical assay that indirectly quantifies the rate of glycogen synthesis by coupling the conversion of GYS1 substrate UDP-glucose into UDP with downstream enzymatic reactions. UDP is released from UDP-glucose as glucose monomers are linked into the growing glycogen strand by GYS1. The coupled assay then proceeds with pyruvate kinase utilizing UDP and phospho (enol) pyruvate (PEP) to form pyruvate. Lactate dehydrogenase then converts pyruvate and NADH into lactate and NAD+. Oxidation of NADH to NAD+ can be measured continuously with a plate reader by quantifying the decrease in NADH absorbance at 340 nm over time.
Compounds that inhibit the hGYS1 enzyme and, subsequently, the downstream conversion of NADH to NAD+, were tested using assay ready plates (black, clear bottom 384 well plates) in a final DMSO reaction volume of 2.5% DMSO. The Assay Buffer contained 50 mM Tris pH 7.5, 2 mM MgCl2, and 100 mM KCl. Fresh stocks of BSA at a final concentration of 0.02% and TCEP at 1 mM were added before splitting buffer into hGYS1 buffer and substrate buffer. To the hGYS1 buffer, rabbit liver glycogen was added at a final concentration of 0.2% glycogen. Glucose-6-Phosphate was added at 1 mM, recombinant hGYS1/GN1 protein was added at 50 nM to the substrate buffer, phosphoenolpyruvate (PEP) was added at 2 mM, UDP-Glucose was added at 0.8 mM, NADH) was added at 0.6 mM, and Pyruvate Kinase/Lactate Dehydrogenase was added at 20 units/mL. The reaction was initiated by mixing hGYS1 buffer and substrate buffer at a 1:1 ratio. Both buffers were plated using a liquid dispensing device with hGYS1 buffer plated first followed by the substrate buffer. Plates were spun briefly to eliminate air bubbles and are immediately read in continuous mode at an absorbance of 340 nm, for 10 time points in one-minute increments, for a total of 10 minutes. The slope from these 10 time points was normalized to the positive and negative control wells.
(§2) Unless otherwise specified, IC50 values are reported as the geometric mean of at least 2 assay runs on separate days. Each run represents the average of a technical replicate, where each compound was assayed twice in the same plate.

[1] = target: hGYS1 enzyme, glycogen synthesis in HeLa cells (Homo sapiens (Human), UniProt P13807); assay: GYS1 cell based assay (glycogen synthesis in HeLa cells, Glucose-glo); details: starved HeLa cells, 24 h incubation; geometric mean of at least 2 assay runs; read-out: Cellular IC50
Chain of hGYS1 enzyme, glycogen synthesis in HeLa cells (P13807 whole entry): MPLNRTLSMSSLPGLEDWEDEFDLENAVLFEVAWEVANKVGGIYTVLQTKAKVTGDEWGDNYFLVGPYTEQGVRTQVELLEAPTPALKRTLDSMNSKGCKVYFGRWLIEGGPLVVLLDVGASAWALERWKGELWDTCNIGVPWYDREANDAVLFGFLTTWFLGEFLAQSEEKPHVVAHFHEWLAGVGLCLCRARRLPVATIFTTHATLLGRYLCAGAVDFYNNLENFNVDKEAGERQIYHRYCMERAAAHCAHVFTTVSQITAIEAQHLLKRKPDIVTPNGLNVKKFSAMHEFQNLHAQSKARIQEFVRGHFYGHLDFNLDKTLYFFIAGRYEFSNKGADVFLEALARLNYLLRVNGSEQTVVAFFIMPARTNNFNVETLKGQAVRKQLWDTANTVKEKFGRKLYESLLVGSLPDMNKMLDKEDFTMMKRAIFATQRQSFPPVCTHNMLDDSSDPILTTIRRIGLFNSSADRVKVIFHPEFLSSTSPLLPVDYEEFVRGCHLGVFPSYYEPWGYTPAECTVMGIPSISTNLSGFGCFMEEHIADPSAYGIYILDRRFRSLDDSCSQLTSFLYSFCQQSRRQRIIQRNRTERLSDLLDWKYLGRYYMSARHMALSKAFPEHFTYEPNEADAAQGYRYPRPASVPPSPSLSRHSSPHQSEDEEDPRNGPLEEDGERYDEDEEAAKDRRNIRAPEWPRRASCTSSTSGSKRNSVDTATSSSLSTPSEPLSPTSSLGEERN
Text: The GYS1 cell based assay is a bioluminescent assay that quantifies the glucose resulting from glycogen digestion; the quantified glucose is an indirect measure of GYS1 glycogen synthesis. Newly synthesized glycogen is digested using Glucoamylase; the resulting glucose is quantified by using the Glucose-glo assay kit from Promega. Glucose-glo works by coupling glucose oxidation and NADH production with a bioluminescent system that is activated with NADH. Glucose is oxidized by Glucose dehydrogenase and the reaction reduces NAD+ to NADH; NADH activates Reductase which reduces a pro-luciferin Reductase Substrate to luciferin. Luciferin is detected in a luciferase reaction using Ultra-Glo rLuciferase and ATP, and the luminesce produced is proportional to the glucose in the sample. The luminescence is measured as a single point read in a plate reader.
Compounds that inhibit the hGYS1 enzyme and, subsequently, the glycogen synthesis in cells, were tested using assay ready plates (white, clear bottom 384 well plates) in a final DMSO reaction volume of 1% DMSO. Compounds in the assay ready plates were mixed with media with no additives, except for 20 mM glucose prior to cell addition. HeLa cells were starved in media with no additives, except for 1× Glutamax for 24 h. Starved HeLa cells were plated, in a 1:1 ratio to the media in the assay ready plate and incubated for 24 h at 37° C. and 5% CO2. Cells were washed in 1×PBS buffer and lysed in lysis buffer containing 50% 1×PBS and 25% 0.3 N HCl of the final volume in the well or reaction volume; cells were incubated with lysis buffer for 10 minutes and quenched with the remaining 25% of the reaction volume that consisted of 450 mM Tris pH 8.0. Lysates were mixed in a 1:1 ratio with Glucoamylase in 100 mM Sodium Acetate buffer, pH 5.3; the mixture was incubated for 1 h at 37° C. The digested lysate was mixed in a 1:1 ratio with Glucose-glo detection mixture as per vendor recommendations (Luciferase detection buffer, Reductase, Reductase substrate, Glucose dehydrogenase, and NAD) in read-out plates (solid white 384-well plates) and incubated for 1 h at RT. The plates were read using a plate reader with luminescence capabilities. Each compound concentration Relative Luminescence Unit (RLU) was averaged and normalized to the average RLU of the positive and negative controls to obtain a percentage inhibition. The normalized data vs. concentration was plotted; to determine the half-maximal concentration (IC50), the Levenberg-Marquardt algorithm was used to fit a Hill equation to the dose response data.
as §2, with “2 assay runs on separate days. […] Unless otherwise specified, IC50 values are reported as the geometric mean of at least two” for “2”

human GYS2 = human GYS2 (Homo sapiens (Human), UniProt P54840); assay: GYS2 coupled enzyme assay (PK/LDH); format: biochemical; details: recombinant hGYS2/GN1 protein; geometric mean of at least 2 assay runs
Chain of human GYS2 (P54840 whole entry): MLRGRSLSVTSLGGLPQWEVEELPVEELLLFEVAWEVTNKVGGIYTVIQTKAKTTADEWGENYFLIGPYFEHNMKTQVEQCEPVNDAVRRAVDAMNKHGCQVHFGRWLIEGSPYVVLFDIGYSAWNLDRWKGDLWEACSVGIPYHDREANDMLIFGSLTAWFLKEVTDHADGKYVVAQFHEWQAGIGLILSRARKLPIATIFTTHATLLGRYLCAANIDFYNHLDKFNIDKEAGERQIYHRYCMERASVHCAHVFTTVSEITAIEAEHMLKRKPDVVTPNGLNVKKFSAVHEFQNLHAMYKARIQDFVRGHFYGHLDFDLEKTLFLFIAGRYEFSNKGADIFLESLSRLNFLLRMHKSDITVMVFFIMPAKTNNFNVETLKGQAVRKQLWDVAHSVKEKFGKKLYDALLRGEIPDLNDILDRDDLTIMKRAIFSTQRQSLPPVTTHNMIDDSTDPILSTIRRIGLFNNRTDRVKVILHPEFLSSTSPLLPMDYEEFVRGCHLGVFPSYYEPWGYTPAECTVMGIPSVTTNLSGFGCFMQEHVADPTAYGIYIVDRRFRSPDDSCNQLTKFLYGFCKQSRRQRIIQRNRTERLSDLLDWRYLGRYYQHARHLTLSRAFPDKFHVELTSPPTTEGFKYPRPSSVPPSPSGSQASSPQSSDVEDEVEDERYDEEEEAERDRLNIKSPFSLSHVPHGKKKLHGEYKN
Chain of human GYS2 (P46976 whole entry partner): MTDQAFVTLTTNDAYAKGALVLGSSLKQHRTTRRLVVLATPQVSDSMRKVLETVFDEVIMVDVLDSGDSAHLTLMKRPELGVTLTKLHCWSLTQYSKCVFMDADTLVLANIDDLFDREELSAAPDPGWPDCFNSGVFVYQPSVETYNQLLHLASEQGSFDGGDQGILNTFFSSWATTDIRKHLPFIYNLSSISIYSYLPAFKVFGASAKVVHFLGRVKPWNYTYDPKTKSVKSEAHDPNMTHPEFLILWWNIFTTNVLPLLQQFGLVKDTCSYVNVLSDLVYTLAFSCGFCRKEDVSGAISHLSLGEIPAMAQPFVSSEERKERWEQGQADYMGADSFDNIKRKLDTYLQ
Text: as §1, with “GYS2” for “GYS1”, “GYS2.” for “GYS1.”
Compounds that inhibit the hGYS2 enzyme and, subsequently, the downstream conversion of NADH to NAD+, were tested using assay ready plates (black, clear bottom 384 well plates) in a final DMSO reaction volume of 2.5% DMSO. The Assay Buffer contained 50 mM Tris pH 7.5, 2 mM MgCl2, and 100 mM KCl. Fresh stocks of BSA at a final concentration of 0.02% and TCEP 1 mM were added before splitting buffer into hGYS2 buffer and substrate buffer. To the hGYS2 buffer, rabbit liver glycogen was added at a final concentration of 0.2% glycogen. Glucose-6-Phosphate was added at 2 mM, recombinant hGYS2/GN1 protein was added at 200 nM to the substrate buffer, phosphoenolpyruvate (PEP) was added at 2 mM, UDP-Glucose was added at 2 mM, NADH was added at 0.6 mM, and Pyruvate Kinase/Lactate Dehydrogenase was added at 20 units/mL. The reaction was initiated by mixing hGYS2 buffer and substrate buffer at a 1:1 ratio. Both buffers were plated using a liquid dispensing device with hGYS2 buffer plated first followed by the substrate buffer. Plates were spun briefly to eliminate air bubbles and are immediately read in continuous mode at an absorbance of 340 nm, for 10 time points in one-minute increments, for a total of 10 minutes. The slope from these 10 time points was normalized to the positive and negative control wells.
as §2, with “2 assay runs on separate days. […] Unless otherwise specified, IC50 values are reported as the geometric mean of at least two” for “2”

Chain of human GYS1 (P13807 whole entry): as the sequence (P13807 whole entry) above
Chain of human GYS1 (P46976 whole entry partner): as the sequence (P46976 whole entry partner) above

IC50 (human GYS1) | IC50 [1] | IC50 (human GYS2) | SMILES
1.58 µM | 27.3 µM | > 100 µM | O=C(O)[C@H]1CCC[C@H]1C(=O)N[C@@H](c1ccccc1)c1ccc(C2CC2)c(F)c1 [Compound 17, (1S,2R)-2-(((S)-(4-cyclopropyl-3-fluorophenyl)(phenyl)methyl)carbamoyl)cyclopentane-1-carboxylic acid]
1.09 µM | 12.3 µM | > 100 µM | CC(C)c1ccc([C@@H](NC(=O)[C@@H]2CCC[C@@H]2C(=O)O)c2cccc3c2NC(=O)CC3)cc1 [Compound 31, (1S,2R)-2-(((R)-(4-isopropylphenyl)(2-oxo-1,2,3,4-tetrahydroquinolin-8-yl)methyl)carbamoyl)cyclopentane-1-carboxylic acid]
0.166 µM | 5.36 µM | 8.48 µM | Cc1ccccc1[C@H](NC(=O)[C@@H]1CCC[C@@H]1C(=O)O)c1ccc(C(C)C)c(F)c1 [Compound 23, (1S,2R)-2-(((R)-(3-fluoro-4-isopropylphenyl)(o-tolyl)methyl)carbamoyl)cyclopentane-1-carboxylic acid]
1.27 µM | 13.9 µM | 66.7 µM | Cc1ccccc1[C@H](NC(=O)[C@@H]1CCC[C@@H]1C(=O)O)c1ccc(C(C)C)cn1 [Compound 22, (1S,2R)-2-(((S)-(5-isopropylpyridin-2-yl)(o-tolyl)methyl)carbamoyl)cyclopentane-1-carboxylic acid]
1.48 µM | 46.3 µM | > 100 µM | CC(C)c1ccc([C@@H](NC(=O)[C@@H]2CCC[C@@H]2C(=O)O)c2ccn[nH]2)cc1F [Compound 27, (1S,2R)-2-(((R)-(3-fluoro-4-isopropylphenyl)(1H-pyrazol-5-yl)methyl)carbamoyl)cyclopentane-1-carboxylic acid]
0.239 µM | 3.93 µM | > 100 µM | CC(C)c1c(F)cc([C@@H](NC(=O)[C@@H]2CCC[C@@H]2C(=O)O)c2ccccc2)cc1F [Compound 8, (1S,2R)-2-(((S)-(3,5-difluoro-4-isopropylphenyl)(phenyl)methyl)carbamoyl)cyclopentane-1-carboxylic acid]
0.497 µM | 8.49 µM | > 100 µM | O=C(O)[C@H]1CCC[C@H]1C(=O)N[C@@H](c1ccccc1)c1ccc(C2CCC2)cn1 [Compound 15, (1S,2R)-2-(((S)-(5-cyclobutylpyridin-2-yl)(phenyl)methyl)carbamoyl)cyclopentane-1-carboxylic acid]
